Measured values taken from PubChem BioAssay (NCI).
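Test compounds were applied to cells in 96-well plates for 48 hours at 5 doses. The concentration for 50% growth inhibition is given as GI50. TGI: concentration producing complete growth inhibition.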

Key:
Assay in all cases: inhibition of tumour cell growth, NCI panel, 48 h
UO-31 renal = tested on: UO-31 renal
UACC-62 melanoma = tested on: UACC-62 melanoma
SK-MEL-5 melanoma = tested on: SK-MEL-5 melanoma
ACHN renal = tested on: ACHN renal
CCRF-CEM leukemia = tested on: CCRF-CEM leukemia
NCI-H460 lung = tested on: NCI-H460 lung
UACC-257 melanoma = tested on: UACC-257 melanoma
786-0 renal = tested on: 786-0 renal
HOP-92 NSCLC = tested on: HOP-92 NSCLC
MCF7 breast = tested on: MCF7 breast

Compound	TGI (UO-31 renal) [µM]	TGI (UACC-62 melanoma) [µM]	TGI (SK-MEL-5 melanoma) [µM]	TGI (ACHN renal) [µM]	TGI (CCRF-CEM leukemia) [µM]	TGI (NCI-H460 lung) [µM]	TGI (UACC-257 melanoma) [µM]	TGI (786-0 renal) [µM]	TGI (HOP-92 NSCLC) [µM]	GI50 (UO-31 renal) [µM]	GI50 (SK-MEL-5 melanoma) [µM]	GI50 (ACHN renal) [µM]	GI50 (MCF7 breast) [µM]	TGI (MCF7 breast) [µM]	GI50 (NCI-H460 lung) [µM]	GI50 (UACC-257 melanoma) [µM]	GI50 (786-0 renal) [µM]	GI50 (UACC-62 melanoma) [µM]	GI50 (HOP-92 NSCLC) [µM]
C=CCNC(=S)OCCCCCCCCCC	24.8	30.2	30.5	32.7	37.4	33	34.6	32.6											
O=C1c2ccccc2C2(O)Oc3cccc(O)c3C12O (stereo unspecified)	> 100	> 100	> 100	> 100	> 100	> 100	> 100	> 100	> 100										
Cc1ccc([Se][Se]c2ccc(C)cc2)cc1	49.7	31.7	39.6	> 100	19.7	> 100	68.8	46.5	22.3										
COC(=O)C(=O)C(C#N)c1ccc(Cl)c(Cl)c1 (stereo unspecified)	> 100	> 100	> 100	> 100	> 100		> 100	> 100	> 100										
COC(=O)c1ccccc1N=Cc1ccc(N(CCC#N)S(=O)(=O)c2ccccc2)cc1	> 100	> 100	> 100	> 100	> 100	> 100	> 100	> 100	> 100										
O=C1NC(=S)NC(=O)C1=Cc1ccc2ccccc2n1	> 100	> 100	> 100	> 100	> 100	> 100	> 100	> 100	> 100										
COc1cc(C(CC(OC)OC)=C(C#N)C#N)cc(OC)c1OC	> 100	> 100	49.2	> 100	59.1	23.4	36.9	> 100	50										
CN1c2ccccc2C(C)(C)C12CC(c1ccc(Cl)c(S(=O)(=O)N3CCCC3)c1)=NO2 (stereo unspecified)	> 100		> 100	> 100		> 100	> 100	> 100		> 100	0.456	> 100	> 100	> 100	0.375	> 100	> 100		
CCOC(=O)CN(Cc1ccccc1)Cc1c(C(=O)c2ccccc2)c2ccccc2n1C(=O)c1ccccc1	> 100	> 100	> 100	> 100	> 100	> 100		> 100	> 100										
Oc1ccccc1C=Nc1ccccc1N=Cc1ccccc1O			> 100	> 100	> 100	> 100	> 100	> 100											
Cc1cccc(N2C(=O)C(=O)C(c3nc4ccccc4s3)C(=O)C2=O)c1C	> 100	> 100	> 100	> 100	> 100		> 100	> 100	> 100										
Cc1nn(C)c(=S)n(C)c1=O	0.753	> 100		10.2	> 100	> 100	11.2	20.3	1.42										
Cc1nn(C)c(=O)c2nn(-c3ccccc3)c(C)c12	> 100	> 100	> 100	> 100	> 100	> 100	> 100	> 100											
O=C1CCC2CCOc3ccc(O)c1c32 (stereo unspecified)	> 100	> 100	> 100	> 100	> 100	> 100	> 100	> 100	> 100										
O=C(O/N=C1/CCCC/C1=C\c1ccccc1)c1ccc(Cl)cc1	> 100	> 100	> 100	> 100	> 100	> 100	> 100	> 100	> 100										
C1C[OH+]CC[OH+]CC[OH+]CC[OH+]CC[OH+]CC[OH+]1.[Cl-].[Ta+5]	30.3	> 100	> 100	> 100		> 100	> 100	> 100	> 100	5.02	> 100	> 100			> 100	> 100	> 100	> 100	> 100
O=C(/C=C/c1ccc(Cl)cc1)c1ccncc1	> 100	> 100	> 100	> 100	> 100	> 100	> 100	> 100	> 100										
